Source: US7842324B2 (Senomyx, Inc., priority 2005, dated 2010)

molecular target: T1, hT1R2/hT1R3 sweet receptor expressed in HEK293 cell line (Homo sapiens, UniProt Q7RTX0+Q8TE23); assay: In vitro hT1R2/hT1R3-HEK293 taste receptor activation assay (FLIPR); type: cell-based; conditions: Table A; read-out: SWEET EC50
T1 construct: expressed in transfected cells; host or cells: HEK293 derivative stably expressing Gα15 and hT1R2/hT1R3, clone S-9
T1 sequence (Q8TE23 20-839): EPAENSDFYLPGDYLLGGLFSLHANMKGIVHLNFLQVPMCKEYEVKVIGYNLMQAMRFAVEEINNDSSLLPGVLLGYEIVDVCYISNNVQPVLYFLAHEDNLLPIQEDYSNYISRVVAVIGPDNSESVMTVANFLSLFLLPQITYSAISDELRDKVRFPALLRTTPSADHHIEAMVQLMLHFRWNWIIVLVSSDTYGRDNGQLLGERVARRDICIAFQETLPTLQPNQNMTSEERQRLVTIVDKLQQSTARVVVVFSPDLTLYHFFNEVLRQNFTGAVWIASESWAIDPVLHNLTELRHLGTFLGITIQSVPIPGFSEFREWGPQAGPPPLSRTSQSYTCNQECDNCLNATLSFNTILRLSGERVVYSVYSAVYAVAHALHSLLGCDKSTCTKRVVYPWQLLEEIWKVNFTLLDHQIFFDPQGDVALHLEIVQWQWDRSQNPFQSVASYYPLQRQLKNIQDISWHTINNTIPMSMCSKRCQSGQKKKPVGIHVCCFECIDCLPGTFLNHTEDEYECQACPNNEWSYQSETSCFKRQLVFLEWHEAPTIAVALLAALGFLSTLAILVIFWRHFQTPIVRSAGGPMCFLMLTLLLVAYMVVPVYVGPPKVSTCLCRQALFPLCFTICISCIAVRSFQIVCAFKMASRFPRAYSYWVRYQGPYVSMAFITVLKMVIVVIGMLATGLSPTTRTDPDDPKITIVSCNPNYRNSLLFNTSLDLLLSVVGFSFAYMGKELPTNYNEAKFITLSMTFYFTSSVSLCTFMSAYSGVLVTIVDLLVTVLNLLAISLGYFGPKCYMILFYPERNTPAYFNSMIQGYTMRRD
T1 sequence (Q7RTX0 21-852): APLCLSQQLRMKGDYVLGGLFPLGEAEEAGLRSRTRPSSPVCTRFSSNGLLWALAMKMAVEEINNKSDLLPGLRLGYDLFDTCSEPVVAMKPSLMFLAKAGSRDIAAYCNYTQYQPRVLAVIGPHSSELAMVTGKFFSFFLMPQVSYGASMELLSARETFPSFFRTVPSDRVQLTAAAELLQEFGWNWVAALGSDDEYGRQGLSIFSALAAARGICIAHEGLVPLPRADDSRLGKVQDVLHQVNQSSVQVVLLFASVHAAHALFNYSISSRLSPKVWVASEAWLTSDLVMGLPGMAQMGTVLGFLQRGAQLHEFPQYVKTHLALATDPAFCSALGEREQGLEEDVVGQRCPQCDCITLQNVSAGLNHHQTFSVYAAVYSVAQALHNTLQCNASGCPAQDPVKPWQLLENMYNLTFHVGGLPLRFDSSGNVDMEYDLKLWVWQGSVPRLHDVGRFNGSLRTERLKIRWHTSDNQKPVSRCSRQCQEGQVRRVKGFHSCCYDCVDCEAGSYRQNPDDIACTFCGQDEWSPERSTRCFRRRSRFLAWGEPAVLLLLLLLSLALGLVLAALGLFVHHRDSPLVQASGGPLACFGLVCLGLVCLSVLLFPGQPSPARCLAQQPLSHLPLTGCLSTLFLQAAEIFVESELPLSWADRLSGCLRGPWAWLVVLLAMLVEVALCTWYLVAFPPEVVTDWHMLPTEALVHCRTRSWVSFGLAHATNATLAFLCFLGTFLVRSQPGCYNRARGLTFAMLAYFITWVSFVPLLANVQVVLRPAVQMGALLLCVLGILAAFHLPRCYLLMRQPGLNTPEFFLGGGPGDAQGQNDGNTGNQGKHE
Description: An HEK293 cell line derivative (Chandrashekar et al., Cell (2000) 100:703-711) that stably expresses Gα15 and hT1R2/hT1R3 (Li et al., Proc Natl Acad Sci USA (2002) 99:4692-4696), see also PCT Publication No. WO 03/001876 A2) was used to identify compounds with sweet taste enhancing properties.
Compounds covered in this document were initially selected based on their activity on the hT1R2/hT1R3-HEK293-Gα15 cell line (Li et al. vide supra). Activity was determined using an automated fluorometric imaging assay on a FLIPR instrument ([…], Molecular Devices, Sunnyvale, Calif.) (designated FLIPR assay). Cells from one clone (designated S-9 cells) were seeded into 384-well plates (at approximately 50,000 cells per well) in a medium containing DMEM Low Glucose (Invitrogen, Carlsbad, Calif.), 10% dialyzed fetal bovine serum (Invitrogen, Carlsbad, Calif.), 100 Units/ml Penicillin G, and 100 μg/ml Streptomycin (Invitrogen, Carlsbad, Calif.) (Li et al. vide supra) see also PCT Publication No. WO 03/001876 A2). S-9 cells were grown for 24 hours at 37° C. S-9 cells were then loaded with the calcium dye Fluo-3AM (Molecular Probes, Eugene, Oreg.), 4 μM in a phosphate buffered saline (D-PBS) (Invitrogen, Carlsbad, Calif.), for 1 hour at room temperature. After replacement with 25 μl D-PBS, stimulation was performed in the FLIPR instrument and at room temperature by the addition of 25 μl D-PBS supplemented with different stimuli at concentrations corresponding to twice the desired final level. Receptor activity was quantified by determining the maximal fluorescence increases (using a 480 nm excitation and 535 nm emission) after normalization to basal fluorescence intensity measured before stimulation.
For dose-responses analysis, stimuli were presented in duplicates at 10 different concentrations ranging from 60 nM to 30 μM. Activities were normalized to the response obtained with 400 mM D-fructose, a concentration that elicits maximum receptor response. EC50s were determined using a non-linear regression algorithm (using a Senomyx, Inc. software), where the Hill slope, bottom asymptotes and top asymptotes were allow to vary. Identical results were obtained when analyzing the dose-response data using commercially available software for non-linear regression analysis such as GraphPad PRISM (San Diego, Calif.).

Compound	EC50 [µM]
CC(C)(C(=O)NCc1ccoc1)c1ccc(-c2cncc(C#N)n2)cc1 [Compound A54]	0.59
CC(C)CNC(=O)C(C)c1ccc(-c2ccccc2)cc1 (stereo not drawn) [Compound A5]	4.26
CC(NC(=O)C(C)(C)c1ccc(-c2cncc(C#N)n2)cc1)c1ccco1 (stereo not drawn) [Compound A42]	0.1
CCC(CC)NC(=O)C(C)(C)c1ccc(-c2cncc(C#N)n2)cc1 [Compound A40]	0.03
CC(C)CNC(=O)C(C)(C)c1ccc(-c2cccc(C=O)c2)cc1 [Compound A37]	0.76
CCC(C)CNC(=O)C(C)(C)c1ccc(-c2cncc(C#N)n2)cc1 (stereo not drawn) [Compound A41]	0.05
COCc1cccc(-c2ccc(C(C)(C)C(=O)NC(C)C)cc2)c1 [Compound A57]	0.92
CC(C)(C(=O)NC1CCC1)c1ccc(-c2cncc(C#N)c2)cc1 [Compound A51]	0.41
COC(=O)c1ccccc1-c1ccc(C(C)(C)C(=O)NCC(C)C)cc1 [Compound A15]	4
CC(C)CNC(=O)C(C)(C)c1ccc(-c2coc(C(=O)O)c2)cc1 [Compound A66]	1.37
CC(C)(C(=O)NCC1CC1)c1ccc(-c2cncc(C#N)c2)cc1 [Compound A84]	0.11
CC(C)CNC(=O)C(C)(C)c1ccc(-c2cncc(OC(C)C)c2)cc1 [Compound A87]	0.21
CC(C)CNC(=O)C(C)(C)c1ccc(-c2ccccc2)cc1 [Compound A36]	1.28
CC(C)(C(=O)NCC1CC1)c1ccc(-c2cncc(C#N)n2)cc1 [Compound A45]	0.27
CC(C)(C(=O)NC1CCCCC1)c1ccc(-c2cncnc2)cc1 [Compound A89]	0.41
CC(C)CNC(=O)C(C)(C)c1ccc(-c2ccncn2)cc1 [Compound A33]	5.4
CC[C@@H](CO)NC(=O)C(C)(C)c1ccc(-c2cncc(C#N)c2)cc1 [Compound A75]	0.68
COc1ccc([C@@H](C)NC(=O)C(C)(C)c2ccc(-c3cncnc3)cc2)cc1 [Compound A88]	0.37

Compound	EC50 [µM]
COc1ccc(-c2ccc(C(C)(C)C(=O)NCC(C)C)cc2)c(OC)c1 [Compound A19]	7.1
CC(C)CNC(=O)C(C)(C)c1ccc(-c2cocc2/C=N/O)cc1 [Compound A71]	0.75
CC(C)CNC(=O)C(C)c1ccc(-c2cccc(F)c2)cc1 (stereo not drawn) [Compound A6]	1.8
COc1cc(C(C)(C)C(=O)NCC(C)C)ccc1-c1ccccc1 [Compound A76]	0.96
CC(=O)c1ccccc1-c1ccc(C(C)(C)C(=O)NCC(C)C)cc1 [Compound A24]	1.17
CC(C)CNC(=O)C(C)(C)c1ccc(-c2ccc(C#N)o2)cc1 [Compound A63]	1.29
CC(C)CNC(=O)C(C)(C)c1ccc(-c2cncnc2)cc1 [Compound A11]	2.13
CCC[C@@H](CO)NC(=O)C(C)(C)c1ccc(-c2cncc(C#N)c2)cc1 [Compound A69]	1.66
CC(C)CNC(=O)C(C)(C)c1ccc(-c2ccncc2)cc1 [Compound A9]	1.66
CC(C)(C(=O)NC1CCCC1)c1ccc(-c2cncc(C#N)n2)cc1 [Compound A43]	0.13
CC(NC(=O)C(C)(C)c1ccc(-c2cncc(C#N)c2)cc1)c1ccccc1 (stereo not drawn) [Compound A20]	0.71
CC(C)CNC(=O)C(C)(C)c1ccc(-c2cscn2)cc1 [Compound A32]	5.4
CC(C)CNC(=O)C(C)(C)c1ccc(-c2cocc2C#N)cc1 [Compound A48]	0.32
CC(C)CNC(=O)C(C)(C)c1ccc(-c2cccc(C#N)n2)cc1 [Compound A81]	0.67
CCc1ccccc1-c1ccc(C(C)(C)C(=O)NCC(C)C)cc1 [Compound A13]	7
CC(C)CNC(=O)C(C)(C)c1ccc(-n2ccnc2)cc1 [Compound A34]	10.1
CC[C@@H](C)NC(=O)C(C)(C)c1ccc(-c2cncc(COC)c2)cc1 [Compound A58]	1.05

same assay, conditions: read-out: EC50 for activation of a hT1R2/hT1R3 sweet receptor expressed in HEK293 cell line

Compound	EC50 [µM]
CC(C)CNC(=O)C(C)(C)c1nc(-c2ccccc2)no1 [Compound 41, N-isobutyl-2-methyl-2-(3-phenyl-1,2,4-oxadiazol-5-yl)propanamide]	6.53
CC(C)CNC(=O)C(C)(C)c1ccc(-c2ccccc2N)cc1 [Compound 13, 2-(2′-aminobiphenyl-4-yl)-N-isobutyl-2-methylpropanamide]	2.2
CC(C)CNC(=O)C(C)(C)c1ccc(-c2ccoc2)cc1 [Compound 1, 2-(4-(Furan-3-yl)phenyl)-N-isobutyl-2-methylpropanamide]	0.34
CC(C)CNC(=O)C(NC(=O)OC(C)(C)C)c1ccc(-c2ccccc2)cc1 (stereo not drawn) [Compound 24, tert-butyl 1-(biphenyl-4-yl)-2-(isobutylamino)-2-oxoethylcarbamate]	7.54
CC(C)CNC(=O)C(C)(C)c1ccc(-c2cccc(OC(C)C)c2)cc1 [Compound 18, N-isobutyl-2-(3′-isopropoxybiphenyl-4-yl)-2-methylpropanamide]	4.2
CC[C@@H](CO)NC(=O)C(C)(C)c1ccc(-c2cncc(C#N)n2)cc1 [Compound 51, (S)-2-(4-(6-cyanopyrazin-2-yl)phenyl)-N-(1-hydroxybutan-2-yl)-2-methylpropanamide]	1.03
Cc1ccccc1-c1ccc(C(C)(C)C(=O)NCC(C)C)cc1 [Compound 12, N-isobutyl-2-methyl-2-(2′-methylbiphenyl-4-yl)propanamide]	1.9
CC(C)CNC(=O)C(C)(C)c1ccc(-n2cccc2)cc1 [Compound 28, 2-(4-(1H-pyrrol-1-yl)phenyl)-N-isobutyl-2-methylpropanamide]	0.35
CC(C)(C(=O)NCC(O)c1ccco1)c1ccc(-c2cncc(C#N)c2)cc1 (stereo not drawn) [Compound 46, 2-(4-(5-cyanopyridin-3-yl)phenyl)-N-(2-(furan-2-yl)-2-hydroxyethyl)-2-methylpropanamide]	1.19
CC(C)CNC(=O)C(C)(C)c1ccc(-c2cncc(C#N)c2)nc1 [Compound 40, 2-(5′-cyano-2,3′-bipyridin-5-yl)-N-isobutyl-2-methylpropanamide]	2.19
